Here are results for eight compounds from patent US10676438B2, “KCNQ2-5 channel activator” (Ono Pharmaceutical Co., Ltd., priority 2014, dated 2020).

Structures are written as SMILES. Converted amounts (≈) assume the structure as drawn.

Data set [1] in a line: Solubility test (DMSO precipitation method, Pharmacopoeia of Japan elution test second solution). Format: physicochemical. As to conditions: aqueous buffer, kinetic from dmso stock; Pharmacopoeia of Japan elution test second solution pH=6.8, room temperature, five hours; quantitation range 5 to 100 μM. The procedure: A calibration curve solution was prepared by diluting a test substance (10 mM DMSO solution) with acetonitrile and adding acetonitrile including an internal standard substance (candesartan) so as to be 0.1, 0.4, and 2 μM.
Sample solution was prepared as follows: 5 μL of the compound of the present invention (10 mM DMSO solution) was added to 495 μL of the Pharmacopoeia of Japan elution test second solution (pH=6.8), and the resulting mixture was stirred at room temperature for five hours. Then, the solution was placed into a solubility filter plate and subjected to suction filtration. The filtrate (20 μL) was diluted with acetonitrile, followed by adding acetonitrile including an internal standard substance ([…]).
The calibration curve and sample solutions in the amount of 5 μL were infused into LC-MS/MS (Discovery Max manufactured by Thermo Scientific) and subjected to quantitation (quantitation range: 5 to 100 μM).

The subject of data set [2] is urinary bladder extracted from rat. The experiment in a line: Relaxing action on urinary bladder extracted from rat (rat Magnus test). As to conditions: concentration at which tension change rate is -20%; carbachol 1 μM-induced contraction of rat urinary bladder strips. As for the experimental part:
Female Jcl Wistar rats (CLEA Japan, Inc., body weight in use: 170 to 200 g) were anesthetized by intraperitoneal administration of about 40 mg/kg of pentobarbital (Somnopentyl, Schering Plough Animal Health Corporation), and killed by bloodletting, followed by abdominal incision to extract the urinary bladder. Immediately, the extracted urinary bladder was immersed in ice-cooled Krebs buffer (Krebs Ringer bicarbonate buffer (Sigma-Aldlich Co.) containing sodium hydrogencarbonate (final concentration: 15 mM) and calcium chloride (final concentration: 2.5 mM)) which had been saturated with a mixed gas (95% O2, 5% CO2).
The urinary bladder bodies were cut in the longitudinal direction to prepare strip specimens (about 10×3 mm) on ice. Immediately, the prepared specimens were suspended in a Magnus tube with 500 mg of tension loaded. The tube was filled with Krebs buffer (37° C.) aerated with a mixed gas. Note here that specimens were prepared within 24 hours after extraction of the tissue.
When one hour or more had passed after the specimen was suspended, 2.5M KCl was added so that the final concentration became 100 mM, specimens showing contraction reaction were used.
Carbachol (a contraction-inducing substance) at the concentration of contraction of 1 μM was used to induce contraction. […] After the contraction reaction was stabilized, a physiological salt solution or the compound of the present invention was added in a cumulative manner from low concentration such that the final concentration became 1, 10, 100 nM, 1 and 10 μM.
The tension (mg) of the extracted urinary bladder was employed as an evaluation parameter. The tension was read by using analysis software WAVE THERMO 1000. Tension after addition of the contraction-inducing substance was set to 0%. The change rate of the tension after addition of the compound of the present invention relative to the tension after addition of the contraction-inducing substance was defined as tension change rate (%). The tension change rate (%) was adopted as an evaluation indicator. The tension change rate (%) is calculated from the following formula. Tension change rate (%)={Tension after addition of compound of the present invention and the like (mg)−Tension before addition of contraction-inducing substance (mg)}/{Tension after addition of contraction-inducing substance (mg)−Tension before addition of contraction-inducing substance (mg)}×100−100
The value at which the tension change rate (%) was −20% was calculated as IC20, and the value was adopted as an indicator of the relaxing action of the extracted urinary bladder.

The nature of data set [3]: Evaluation of stability in human liver microsome. In kind it is in vitro ADME. The following applies: human, 15 min, 5 μmol/L, pH 7.4. The procedure: A test compound (10 mmol/L DMSO solution, 5 μL) was diluted with 50% acetonitrile aqueous solution (195 μL) to prepare 0.25 mmol/L solution.
To a reactor vessel which had been warmed to 37° C. in advance, 0.5 mg/mL of human liver microsome (Xenotech) and 245 μL of 0.1 M phosphate buffer solution (pH 7.4) including NADPH-Co-factor (BD Biosciences) were added, followed by preincubation for five minutes. Then, the above-mentioned test compound solution (5 μL) was added so as to start reaction (final concentration: 5 μmol/L). Immediately after the start, 20 μL was harvested and added to 180 μL of acetonitrile including an internal standard substance (warfarin) to stop the reaction. This solution (20 μL) was stirred with 180 μL of 50% acetonitrile aqueous solution on a plate equipped with a deproteinization filter. Then, the resulting mixture solution was subjected to suction filtration. The filtrate was adopted as a standard sample.
The above-mentioned reaction solution was incubated at 37° C. for 15 minutes, and 20 μL of the solution was added to 180 μL of cooled acetonitrile (including warfarin that is an internal standard substance) to stop the reaction. This solution (20 μL) was stirred with 180 μL of 50% acetonitrile aqueous solution on a plate equipped with a deproteinization filter, and then the resulting mixture solution was subjected to suction filtration. The filtrate was adopted as a reaction sample.
Residual rate (%) was obtained as follows: 1 μL of the sample solution was infused into LC-MS/MS (Discovery Max manufactured by Thermo Scientific), and a quotient obtained by dividing a peak area ratio of the reaction sample (peak area of test compound/peak area of internal standard substance) was divided by the peak area ratio of the standard sample was multiplied by 100.

In a further data set the target is hERG channel (Homo sapiens (Human), UniProt Q12809). Kind of data set: Evaluation of action on hERG IKr current (patch-clamp). In kind it is cell-based. As to conditions: HEK293 cell overexpressing hERG, maximum tail current, 10 minutes after application; read-out: IC50 (50% inhibitory activity of hERG channel). As for the experimental part:
Using HEK293 cell overexpressing a human ether-a-go-go-related gene (hERG), the maximum tale current of the hERG IKr current induced by redepolarization pulse subsequent to depolarization pulse was measured by a patch-clamp method.

The target of another data set is Human KCNQ2/3 channel (Homo sapiens (Human), UniProt O43525+O43526). Kind of data set: Opening action with respect to KCNQ2/3 channel by depolarization stimulation (thallium influx, FLIPR). In kind it is cell-based. As to conditions: concentration giving 50% of maximum reaction of retigabine (10 μM); human KCNQ2/3 expression CHO-DHFR- cells; 5 mM potassium and 0.5 mM thallium; read-out: KCNQ2/3 ECrtg50. The procedure:
Human KCNQ2/3 expression cells (CHO-DHFR-cells) were seeded in each well of 384 well plate (collagen-coated, black, clear bottom) at 0.5×10^4 cells/50 μL per well, and cultured in a MEM ALPHA medium (containing 10 vol % inactivated (56° C., 30 min) Fetal Bovine Serum and 100 IU/mL Penicillin—100 μg/mL Streptomycin—2 mM L-Glutamine) at 37° C. in 5% CO2 for 18 to 24 hours. The medium in the plate was removed. Then, incubation (room temperature, 60 minutes, light-shielded) was carried out in a loading buffer (prepared by the method described in the manual of FluxOR Thallium Detection Kit (Invitrogen, F10016, F10017)). KCNQ2/3 channel opening action (thallium influx into cells) by the depolarization stimulation (5 mM potassium and 0.5 mM thallium) was measured by FLIPR TETRA (Molecular Devices). The compound of the present invention had been treated five minutes before the depolarization stimulation, and the reaction induced by the depolarization stimulation was measured over time for 180 seconds. The channel opening action of the compound of the present invention was evaluated based on the change amount of the fluorescence intensity from the time before the depolarization stimulation to the time after the passage of 180 seconds. Thus, the concentration (ECrtg50) satisfying 50% of the fluorescence intensity change of maximum reaction (at the time of 10 μM-treatment) of retigabine under this experiment condition was calculated.

Chain of hERG channel (Q12809 whole entry): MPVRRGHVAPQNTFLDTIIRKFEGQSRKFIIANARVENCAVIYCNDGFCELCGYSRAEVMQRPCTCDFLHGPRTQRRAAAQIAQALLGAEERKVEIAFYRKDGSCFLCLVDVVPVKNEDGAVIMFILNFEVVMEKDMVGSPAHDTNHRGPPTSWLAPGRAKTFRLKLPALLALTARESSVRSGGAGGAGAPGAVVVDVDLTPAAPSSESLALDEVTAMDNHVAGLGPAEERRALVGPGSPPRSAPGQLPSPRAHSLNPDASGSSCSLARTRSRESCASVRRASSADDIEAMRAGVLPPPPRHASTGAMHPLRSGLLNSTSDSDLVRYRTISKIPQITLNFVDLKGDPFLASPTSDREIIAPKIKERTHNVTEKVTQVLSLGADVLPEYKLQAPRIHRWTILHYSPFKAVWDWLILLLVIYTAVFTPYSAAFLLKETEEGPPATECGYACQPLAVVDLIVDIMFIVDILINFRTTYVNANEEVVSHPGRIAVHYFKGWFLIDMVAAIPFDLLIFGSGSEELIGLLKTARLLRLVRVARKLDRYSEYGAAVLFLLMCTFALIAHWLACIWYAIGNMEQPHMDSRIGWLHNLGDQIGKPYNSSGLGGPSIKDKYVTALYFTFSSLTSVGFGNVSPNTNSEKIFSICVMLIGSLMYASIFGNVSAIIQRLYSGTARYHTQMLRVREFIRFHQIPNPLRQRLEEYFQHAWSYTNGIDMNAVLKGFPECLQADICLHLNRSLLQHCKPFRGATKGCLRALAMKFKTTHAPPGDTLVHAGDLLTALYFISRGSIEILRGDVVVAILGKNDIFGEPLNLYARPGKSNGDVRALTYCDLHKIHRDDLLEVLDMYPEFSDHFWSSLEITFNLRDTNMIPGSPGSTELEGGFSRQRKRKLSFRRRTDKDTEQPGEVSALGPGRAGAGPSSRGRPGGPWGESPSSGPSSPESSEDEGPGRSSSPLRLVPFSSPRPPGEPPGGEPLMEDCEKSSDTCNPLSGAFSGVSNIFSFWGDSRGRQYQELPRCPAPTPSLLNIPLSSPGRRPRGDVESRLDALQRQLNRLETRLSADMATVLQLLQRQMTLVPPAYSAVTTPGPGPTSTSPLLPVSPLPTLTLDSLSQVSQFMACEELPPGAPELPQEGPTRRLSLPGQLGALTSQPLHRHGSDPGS

Compound `C[C@@](O)(c1cc(Cl)c(NC(=O)NCc2ccc(C(F)(F)F)cn2)c(Cl)c1)C(F)(F)F` [Example 22 (1), 1-{2,6-dichloro-4-[(2R)-1,1,1-trifluoro-2-hydroxy-2-propanyl]phenyl}-3-{[5-(trifluoromethyl)-2-pyridinyl]methyl}urea] registered a solubility at 5 h in data set [1] of 77 µM (≈ 36.7 µg/mL). It took 300 nM to reach the 20% level in data set [2] (IC20). In data set [3], the Residual rate came to 100%. Also, the IC50 on hERG channel was greater than 10000 nM. The EC50 on Human KCNQ2/3 channel was 60 nM.

In the case of `O=C(NCc1cnc(C(F)(F)F)s1)Nc1c(Cl)cc([C@H](O)C(F)(F)F)cc1Cl` [Example 36, 1-{2,6-dichloro-4-[(1S)-2,2,2-trifluoro-1-hydroxyethyl]phenyl}-3-{[2-(trifluoromethyl)-1,3-thiazole-5-yl]methyl}urea], in data set [1], the solubility at 5 h was 44 µM (≈ 20.6 µg/mL). For the same compound, the IC20 in data set [2] came out at 10 nM. This compound also registered a Residual rate in data set [3] of 100%. The concentration for half-maximal inhibition (IC50) on hERG channel is greater than 10000 nM. Also, the EC50 on Human KCNQ2/3 channel was found to be 30 nM.

`CC(O)(c1cc(Cl)c(NC(=O)Cc2ccc(F)cc2)c(Cl)c1)C(F)(F)F` (stereo not shown) [Example 50 (1), N-[2,6-dichloro-4-(1,1,1-trifluoro-2-hydroxy-2-propanyl)phenyl]-2-(4-fluorophenyl)acetamide] returned a solubility at 5 h in data set [1] of 82 µM (≈ 33.6 µg/mL). The compound also displayed a Residual rate in data set [3] of 96%. Moreover, on hERG channel, the half-inhibitory concentration (IC50) is greater than 10000 nM. For the same compound, the EC50 on Human KCNQ2/3 channel was 60 nM.

Turning to `C[C@](O)(c1cc(Cl)c(NC(=O)NCc2ncc(C(F)(F)F)cn2)c(Cl)c1)C(F)(F)F` [Example 25 (1), 1-{2,6-dichloro-4-[(2S)-1,1,1-trifluoro-2-hydroxy-2-propanyl]phenyl}-3-{[5-(trifluoromethyl)-2-pyrimidinyl]methyl}urea], the solubility at 5 h in data set [1] turned out to be 96 µM (≈ 45.8 µg/mL). Further, the IC20 in data set [2] came to 600 nM. In data set [3], the Residual rate turned out to be 78%. Besides, the IC50 at hERG channel is greater than 10000 nM. Also, the EC50 on Human KCNQ2/3 channel is 1400 nM.

Compound `NC(c1cc(Cl)c(NC(=O)NCc2ccc(C(F)(F)F)cn2)c(Cl)c1)C(F)(F)F` (stereo not shown) [Example 79 (1), 1-[4-(1-amino-2,2,2-trifluoroethyl)-2,6-dichlorophenyl]-3-{[5-(trifluoromethyl)-2-pyridinyl]methyl}urea] yielded a solubility at 5 h in data set [1] of 87 µM (≈ 40.1 µg/mL). For the same compound, the Residual rate in data set [3] was 82%. In addition, the IC50 at hERG channel was greater than 10000 nM. The EC50 at Human KCNQ2/3 channel turned out to be 1600 nM.

In the case of `O=C(NCc1ncc(C(F)(F)F)cn1)Nc1c(Cl)cc([C@@H](O)C(F)(F)F)cc1Cl` [Example 32 (4), 1-{2,6-dichloro-4-[(1R)-2,2,2-trifluoro-1-hydroxyethyl]phenyl}-3-{[5-(trifluoromethyl)-2-pyrimidinyl]methyl}urea], the solubility at 5 h in data set [1] is 77 µM (≈ 35.7 µg/mL). In data set [2], this compound returned an IC20 of 200 nM. Also, the Residual rate in data set [3] came to 100%. The IC50 at hERG channel was greater than 10000 nM. On Human KCNQ2/3 channel, the EC50 stood at 200 nM.

`O=C(NCc1cnc(C(F)(F)F)nc1)Nc1c(Cl)cc([C@@H](O)C(F)(F)F)cc1Cl` [Example 32 (3), 1-{2,6-dichloro-4-[(1R)-2,2,2-trifluoro-1-hydroxyethyl]phenyl}-3-{[2-(trifluoromethyl)-5-pyrimidinyl]methyl}urea] displayed a solubility at 5 h in data set [1] of 100 µM (≈ 46.3 µg/mL). This compound also yielded a concentration for an effect of 20% (IC20) in data set [2] of 100 nM. This compound also showed a Residual rate in data set [3] of 100%. Further, the IC50 on hERG channel was greater than 10000 nM. In addition, the EC50 on Human KCNQ2/3 channel was determined as 500 nM.

`C[C@](O)(c1cc(Cl)c(NC(=O)NCc2ccc(Cl)cn2)c(Cl)c1)C(F)(F)F` [Example 25 (5), 1-[(5-chloro-2-pyridinyl)methyl]-3-{2,6-dichloro-4-[(2S)-1,1,1-trifluoro-2-hydroxy-2-propanyl]phenyl}urea] gave a solubility at 5 h in data set [1] of 98 µM (≈ 43.4 µg/mL). The same compound came in with an IC20 in data set [2] of 500 nM. Further, the Residual rate in data set [3] amounted to 87%. In addition, on hERG channel, the IC50 was greater than 10000 nM.
